The text below walks through data of patent US9234004B2, “Antimicrobial peptides” (Agency for Science, Technology and Research, priority 2010, dated 2016).

Assay type in all cases: cell-based
One series has as its system rat red blood cells. In words: Hemolytic activity test. As to the method: Peptides were obtained from GL Biochem (Shanghai, China), and their fidelity was further confirmed via matrix-assisted laser desorption/ionization time-of-flight mass spectroscopy (MALDI-TOF MS, Model Autoflex II, Bruker Daltonics Inc., U.S.A.), using α-cyano-4-hydroxycinnamic acid as matrix. The purity of the peptides was also tested to be more than 95% with analytical reverse phase (RP)-HPLC. α-Cyano-4-hydroxycinnamic acid (HCCA) was purchased from Sigma-Aldrich (Singapore) and used in saturated acetonitrile/water (1:1 volume ratio) after being re-crystallized. Sodium dodecyl sulphate (SDS) micelle solution (10% w/v in DI water) was obtained from 1st Base (Malaysia) and used upon dilution to the desirable concentration range. Tryptic soy broth (TSB) powder and yeast mould broth (YMB) powder were purchased from BD Diagnostics (Singapore) and used to prepare the microbial broths according to the manufacturer's instructions. Phosphate-buffered saline solution at 10× concentration was purchased from 1st Base (Malaysia) and used after dilution to the desired concentration. Ethanol (analytical grade, 99%) and glutaraldehyde (synthetic grade, 50% in H2O) were purchased from Sigma Aldrich (Singapore) and used as received. […] Red blood cells used in the experiments were obtained from rats maintained at the Animal Handling Units of the Biomedical Research Centers (Singapore). Human peripheral blood mononuclear cells (PBMCs) were extracted from healthy blood donors and maintained with RPMI medium supplemented with 10% lowendotoxin fetal bovine serum (FBS) and 1% penicillin-streptomycin. Granulocyte macrophage-colony stimulating factor (GM-CSF) and lipopolysaccharide were purchased from Sigma-Aldrich and used as received.
Fresh red blood cells were washed with PBS for three times, and were subjected to 25 times dilution with PBS to reach a concentration of approximately 4% (in volume) of the blood cells. The red blood cell suspension (100 μL) was placed into a 96-well cell culture plate and mixed with 100 μL of the antimicrobial peptide solution in PBS at concentrations of 0.98, 1.95, 3.90, 7.81, 15.63, 31.25, 62.5, 125, 250, 500 mg/L. The mixture was then incubated at 37° C. for 1 hour to allow for the hemolysis process to take place. At the end of incubation time, the non-hemolysed red blood cells were separated by centrifugation at 13000 g for 5 minutes. Aliquots (100 μL) of the supernatant were transferred into a new 96-well plate, and the hemoglobin release was measured by checking the UV-absorbance of the samples at 576 nm using a microplate reader (TECAN, Switzerland). Two controls were provided in this assay: an untreated red blood cell suspension in PBS was used as the negative control, and a solution containing red blood cells lysed with 0.1% Triton-X was used as the positive control. Each assay was performed in 6 replicates, and the data were expressed as means and standard deviations of the 6 replicates. Percentage of hemolysis was calculated using the following formula: Hemolysis (%)=[(O.D.576 nm of the treated sample−O.D.576 nm of the negative control)/(O.D.576 nm of positive control−O.D.576 nm of negative control)]×100%. Field Emission-Scanning Electron Microscopy (FE-SEM) Analysis of Bacterial Cells

In a further series the test system is B. subtilis. How it is done:
(§1) Microbial cells were firstly re-constituted from its lyophilized form according to the manufacturer's protocol. Bacterial cells were cultured in tryptic soy broth (TSB) at 37° C., and yeast cells were cultured in yeast mould broth (YMB) at room temperature under constant shaking at 100 rpm. Broth containing an antimicrobial peptide was prepared at various concentrations (0.98, 1.95, 3.90, 7.81, 15.63, 31.25, 62.5, 125, 250, 500 mg/L) and transferred into a 96-well tissue culture plate (100 μL/well). Microorganism was first inoculated overnight to enter its log growth-phase. An equal volume of microorganism solution (100 μL) was added into each well of the 96-well plate containing the antimicrobial peptide. Prior to this mixing, the concentration of microorganism solution was adjusted to give an initial optical density (O.D.) reading of 0.1-0.2 at 600 nm wavelength. The growth of the microorganism was observed upon introducing the antimicrobial peptide by measuring the O.D. readings at 2 hour intervals for up to 8 hours. […] Broth containing microbial cells was used as the negative control, and each test was carried out in 6 replicates. The standard deviations of the 6 readings were reported as the error bars.

In another series the test system is P. aeruginosa. How it is done: as §1
For a further series, the system named is C. albicans. How it is done:
as §1

A further series has as its system E. coli. As to the method: as §1
The mark [1] stands for this setting: rat red blood cells, 37° C., 1 hour.
The mark [2] stands for this setting: 8 hours incubation, tryptic soy broth, 37° C.
The mark [3] stands for this setting: 8 hours incubation, yeast mould broth, room temperature.

In brackets after ≈: the same amount, converted by molar mass. Where two headings read alike, the source gives them in different places. Ends that are not written are not given here. Peptide text beside a SMILES is read from it.

Regarding `CC(C)C[C@H](NC(=O)[C@H](CC(C)C)NC(=O)[C@H](CCCCN)NC(=O)[C@H](CCCCN)NC(=O)[C@H](CC(C)C)NC(=O)[C@H](CC(C)C)NC(=O)[C@@H](N)CS)C(=O)N[C@@H](CCCCN)C(=O)N[C@@H](CCCCN)C(=O)N[C@@H](CS)C(N)=O` [CLLKKLLKKC-NH2] (H-CLLKKLLKKC-NH2), the “HC50 (50% hemolytic concentration)” value in the series on rat red blood cells (red cells of rat, 1 h) was above 2500 mg/L. In addition, the “MIC B. subtilis” value against B. subtilis (8 h) was found to be 125 µg/mL (≈ 105 µM). Besides, the “MIC P. aeruginosa” value against P. aeruginosa (8 h) was determined as 125 µg/mL (≈ 105 µM). The “MIC C. albicans” value in the series with C. albicans (8 h) is 250 µg/mL (≈ 210 µM). Also, the “MIC E. coli” value with E. coli (8 h) was 225 µg/mL (≈ 189 µM).

With `CC(C)C[C@H](NC(=O)[C@H](CC(C)C)NC(=O)[C@H](CCCCN)NC(=O)[C@H](CCCCN)NC(=O)[C@H](CC(C)C)NC(=O)[C@H](CC(C)C)NC(=O)[C@H](CCCCN)NC(=O)[C@H](CCCCN)NC(=O)[C@H](CC(C)C)NC(=O)[C@H](CC(C)C)NC(=O)[C@@H](N)CS)C(=O)N[C@@H](CCCCN)C(=O)N[C@@H](CCCCN)C(=O)N[C@@H](CS)C(N)=O` [CLLKKLLKKLLKKC-NH2] (H-CLLKKLLKKLLKKC-NH2), in the series on rat red blood cells (setting [1]), the “HC50 (50% hemolytic concentration)” value is around 82 mg/L. Besides, the “MIC B. subtilis” value against B. subtilis (setting [2]) came to 31 µg/mL (≈ 18.5 µM). Besides, the “MIC P. aeruginosa” value in the series on P. aeruginosa (8 hours incubation) is 125 µg/mL (≈ 74.8 µM). Further, in the series on C. albicans (setting [3]), the “MIC C. albicans” value was 125 µg/mL (≈ 74.8 µM). Also, the “MIC E. coli” value in the series on E. coli (setting [2]) was determined as 125 µg/mL (≈ 74.8 µM).

For the molecule “AARRAARRAARR-NH2 [(AARR)3, AARRAARRAARR-NH2]”, in the series on rat red blood cells (red cells of rat, 1 h), the “HC50 (50% hemolytic concentration)” value was above 500 mg/L. Besides, in the series with B. subtilis (8 h), the “MIC B. subtilis” value was above 500 µg/mL. The “MIC C. albicans” value against C. albicans (8 h) is above 500 µg/mL. Moreover, in the series with E. coli (8 h), the “MIC E. coli” value was above 500 µg/mL.

Take FFRRFFRR-NH2 [(FFRR)2, FFRRFFRR-NH2]: the “HC50 (50% hemolytic concentration)” value with rat red blood cells (red cells of rat, 1 h) was above 500 mg/L. The “MIC B. subtilis” value against B. subtilis (8 h) came to 125 µg/mL. For the same molecule, in the series with C. albicans (8 h), the “MIC C. albicans” value was above 500 µg/mL. Also, the “MIC E. coli” value against E. coli (8 h) was above 500 µg/mL.

“FFRRFFRRFFRR-NH2 [(FFRR)3, FFRRFFRRFFRR-NH2]”: in the series on rat red blood cells, the “hemolysis at the MIC against B. subtilis” value is reported as “less than 5%” and the “hemolysis at the MIC level for C. albicans” value was 12-24%. In the series with rat red blood cells (red cells of rat, 1 h), the “HC50 (50% hemolytic concentration)” value is recorded as above 500 mg/L. In addition, in the series with B. subtilis (8 h), the “MIC B. subtilis” value turned out to be 31.3 µg/mL. In addition, the “MIC C. albicans” value against C. albicans (8 h) turned out to be 125 µg/mL. Further, the “MIC E. coli” value against E. coli (8 h) is above 500 µg/mL.

Turning to “FFRRFFRRFFRRFFRR-NH2 [(FFRR)4, FFRRFFRRFFRRFFRR-NH2]”, the “hemolysis at the MIC against B. subtilis” value in the series with rat red blood cells is on record as “around 50%”. Besides, in the series with rat red blood cells (red cells of rat, 1 h), the “HC50 (50% hemolytic concentration)” value is recorded as around 26 mg/L. Also, the “MIC B. subtilis” value in the series with B. subtilis (8 h) was 20 µg/mL. Besides, the “MIC C. albicans” value with C. albicans (8 h) is above 50 µg/mL. Also, the “MIC E. coli” value with E. coli (8 h) is above 50 µg/mL.

Regarding LLKKLLKKC-NH2 [LLKKLLKKC-NH2], in the series on rat red blood cells (red cells of rat, 1 h), the “HC50 (50% hemolytic concentration)” value is above 2500 mg/L. In addition, the “MIC B. subtilis” value in the series with B. subtilis (8 h) was 125 µg/mL. Moreover, in the series with P. aeruginosa (8 h), the “MIC P. aeruginosa” value is 63 µg/mL. In the series on C. albicans (8 h), the “MIC C. albicans” value came out at 250 µg/mL. Moreover, the “MIC E. coli” value in the series on E. coli (8 h) was above 500 µg/mL.

In the case of “LLKKLLKKLLKK-NH2 [(LLKK)3, LLKKLLKKLLKK-NH2]”, the “hemolysis at the MIC against B. subtilis” value with rat red blood cells was “less than 5%”. Moreover, in the series on rat red blood cells (red cells of rat, 1 h), the “HC50 (50% hemolytic concentration)” value is reported as above 500 mg/L. Also, the “MIC B. subtilis” value against B. subtilis (8 h) stood at 31.3 µg/mL. The “MIC C. albicans” value in the series on C. albicans (8 h) is 125 µg/mL. Moreover, the “MIC E. coli” value against E. coli (8 h) was above 500 µg/mL.

Take LLKKLLKKLLKKC-NH2 [LLKKLLKKLLKKC-NH2]: the “HC50 (50% hemolytic concentration)” value with rat red blood cells (setting [1]) is listed as around 402 mg/L. Further, in the series on B. subtilis (setting [2]), the “MIC B. subtilis” value is 16 µg/mL. Moreover, the “MIC P. aeruginosa” value in the series with P. aeruginosa (8 hours incubation) was 16 µg/mL. In addition, in the series with C. albicans (setting [3]), the “MIC C. albicans” value was determined as 63 µg/mL. Besides, the “MIC E. coli” value in the series on E. coli (setting [2]) turned out to be 150 µg/mL.

Regarding “LLRRLLRRLLRR-NH2 [(LLRR)3, LLRRLLRRLLRR-NH2]”, in the series with rat red blood cells, the “hemolysis at the MIC against B. subtilis” value is “less than 5%” and the “hemolysis at the MIC level for C. albicans” value is given as 12-24%. In addition, in the series on rat red blood cells (red cells of rat, 1 h), the “HC50 (50% hemolytic concentration)” value is above 500 mg/L. The “MIC B. subtilis” value with B. subtilis (8 h) is 15.6 µg/mL. The “MIC C. albicans” value against C. albicans (8 h) stood at 500 µg/mL. Also, in the series with E. coli (8 h), the “MIC E. coli” value was above 500 µg/mL.

Regarding “LLRRLLRRLLRRLLRR-NH2 [(LLRR)4, LLRRLLRRLLRRLLRR-NH2]”, in the series on rat red blood cells, the “hemolysis at the MIC against B. subtilis” value is “around 50%”. Further, the “HC50 (50% hemolytic concentration)” value with rat red blood cells (red cells of rat, 1 h) is reported as around 12 mg/L. Further, the “MIC B. subtilis” value against B. subtilis (8 h) amounted to 10 µg/mL. The “MIC C. albicans” value in the series with C. albicans (8 h) is above 50 µg/mL. For the same molecule, in the series on E. coli (8 h), the “MIC E. coli” value is above 50 µg/mL.

Take MLLKKLLKKLLKKM-NH2 [MLLKKLLKKLLKKM-NH2]: in the series with rat red blood cells (setting [1]), the “HC50 (50% hemolytic concentration)” value is given as around 158 mg/L. For the same molecule, the “MIC B. subtilis” value with B. subtilis (setting [2]) was determined as 31 µg/mL. The “MIC P. aeruginosa” value in the series on P. aeruginosa (8 hours incubation) worked out at 31 µg/mL. Moreover, the “MIC C. albicans” value with C. albicans (setting [3]) came to 125 µg/mL. Further, the “MIC E. coli” value in the series with E. coli (setting [2]) worked out at 250 µg/mL.

In the case of MLLKKLLKKM-NH2 [MLLKKLLKKM-NH2], the “HC50 (50% hemolytic concentration)” value with rat red blood cells (red cells of rat, 1 h) is above 2500 mg/L. In addition, the “MIC B. subtilis” value in the series with B. subtilis (8 h) came out at 125 µg/mL. Besides, in the series with P. aeruginosa (8 h), the “MIC P. aeruginosa” value turned out to be 500 µg/mL. For the same molecule, in the series with C. albicans (8 h), the “MIC C. albicans” value is 500 µg/mL. Moreover, the “MIC E. coli” value in the series with E. coli (8 h) was above 500 µg/mL.
